This is an account of results in publication PMC4021826, “Functional characterization of a xylose transporter in Aspergillus nidulans” (Biotechnology for Biofuels, 2014).

This assay addresses T1, XtrD (Aspergillus nidulans, UniProt Q5BGT0).
T1 construct: gene ANIA_00250; full-length xtrD in modified vector pRH195 (HXT7 promoter), expressed in S. cerevisiae EBY.VW4000 lacking hexose transporters
T1 sequence (Q5BGT0 1-547): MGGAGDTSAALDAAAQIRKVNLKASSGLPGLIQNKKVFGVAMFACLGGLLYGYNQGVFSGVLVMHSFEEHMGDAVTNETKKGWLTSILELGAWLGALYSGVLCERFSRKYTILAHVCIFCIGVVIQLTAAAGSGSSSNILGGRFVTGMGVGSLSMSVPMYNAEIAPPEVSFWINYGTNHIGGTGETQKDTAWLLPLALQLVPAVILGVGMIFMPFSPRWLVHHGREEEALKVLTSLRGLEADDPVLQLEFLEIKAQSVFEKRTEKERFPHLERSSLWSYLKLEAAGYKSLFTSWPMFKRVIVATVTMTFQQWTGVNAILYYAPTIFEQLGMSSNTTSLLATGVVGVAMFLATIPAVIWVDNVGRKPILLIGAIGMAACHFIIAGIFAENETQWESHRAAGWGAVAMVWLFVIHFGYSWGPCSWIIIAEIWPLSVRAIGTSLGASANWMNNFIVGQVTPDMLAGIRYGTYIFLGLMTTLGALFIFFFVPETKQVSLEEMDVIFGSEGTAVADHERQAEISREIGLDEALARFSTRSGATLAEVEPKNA
In words: competition of […]glucose uptake in S. cerevisiae EBY.VW4000 expressing xtrD. It is filed as cell-based. Conditions: 10- and 20-fold excess unlabeled xylose over glucose, respectively; 5 s uptake, 30 °C.

As for `OC1OC[C@@H](O)[C@H](O)[C@H]1O` (stereo partly shown) [xylose], the “% inhibition of radiolabeled glucose transport at 10- and 20-fold excess” value is 90% to 100%.
